The source of these data is patent US8097733B2, “Pyrazole derivatives as 5-LO-inhibitors” (Pfizer Inc., priority 2007, dated 2012).

Experiment [1] concerns human whole blood (leukotriene and prostaglandin levels). As to the kind of experiment: Eicosanoid production from human whole blood. Format: cell-based. Particulars: human whole blood stimulated with calcium ionophore A23187 and arachidonic acid; ELISA. The method, then:
Human whole blood is collected in 10 ml heparin tubes (Vacutainer, Becton Dickenson). Collected blood is pooled and 80 μL is dispensed into each well of 384 well polypropylene plates. A PlateMate is used to add 2 μL of compound solution in DMSO to the 80 μL of blood in the polypropylene plates. The plate, with blood and compound added, is incubated at room temperature for 10 minutes. 2 μL of a calcimycin (800 ng/ml) (A23187 C-7522, Sigma) and arachidonic acid (30 μM) (NU-Chek PREP, INC. S-1133) solution in 60% ethanol is then added to the blood using a Micromultidrop. The plates are then incubated at 37° C. in a shallow water bath for 15 minutes. Plates are then spun at 800 g for 10 minutes at 4° C. Supernatant is removed and assayed by Elisa (Caymen Chemical).
Eicosanoid Production from Human Whole Blood:
Human whole blood was collected from healthy or asthmatic human donors in 10 ml heparinized tubes (Vacutainer tubes; Becton Dickenson, Franklin Lakes, N.J.). Collected blood was pooled and 80 μL was dispensed into each well of 384 well polypropylene plates using a Multi-prop™ 384-well dispenser (Titertek, Huntsville, Ala.). Varying concentrations of compounds were dissolved in DMSO then 2 μL/well was added to the blood using a PlateMate Plus™ automated pipetting station (Matrix Technologies, Hudson, N.H.). The compounds were preincubated with the blood at room temperature for 10 minutes followed by stimulation with 40 μM calcium ionophore (A23187, Sigma Chemical Co, St. Louis, Mo., Cat. # C-7522) and 30 μM arachidonic acid (S-1133, NU-Chek PREP, Inc., Elysian, MN, Cat. # S-1133) dissolved in 60% ethanol. After 15 min incubation at 37° C. in a shallow water bath, the blood was centrifuged at 8009 for 10 minutes at 4° C., the supernatants collected, and leukotriene and prostaglandin levels measured by ELISA according to the manufacturer's directions (Cayman Chemical Company, Ann Arbor, Mich.). The assay was performed at a final concentration of 2.5% DMSO.
(In general: ELISA stands for enzyme-linked immunosorbent assay.)

The next experiment has as its target T1, recombinant human 5-LOX (Homo sapiens, UniProt P09917).
T1 sequence (P09917 1-674): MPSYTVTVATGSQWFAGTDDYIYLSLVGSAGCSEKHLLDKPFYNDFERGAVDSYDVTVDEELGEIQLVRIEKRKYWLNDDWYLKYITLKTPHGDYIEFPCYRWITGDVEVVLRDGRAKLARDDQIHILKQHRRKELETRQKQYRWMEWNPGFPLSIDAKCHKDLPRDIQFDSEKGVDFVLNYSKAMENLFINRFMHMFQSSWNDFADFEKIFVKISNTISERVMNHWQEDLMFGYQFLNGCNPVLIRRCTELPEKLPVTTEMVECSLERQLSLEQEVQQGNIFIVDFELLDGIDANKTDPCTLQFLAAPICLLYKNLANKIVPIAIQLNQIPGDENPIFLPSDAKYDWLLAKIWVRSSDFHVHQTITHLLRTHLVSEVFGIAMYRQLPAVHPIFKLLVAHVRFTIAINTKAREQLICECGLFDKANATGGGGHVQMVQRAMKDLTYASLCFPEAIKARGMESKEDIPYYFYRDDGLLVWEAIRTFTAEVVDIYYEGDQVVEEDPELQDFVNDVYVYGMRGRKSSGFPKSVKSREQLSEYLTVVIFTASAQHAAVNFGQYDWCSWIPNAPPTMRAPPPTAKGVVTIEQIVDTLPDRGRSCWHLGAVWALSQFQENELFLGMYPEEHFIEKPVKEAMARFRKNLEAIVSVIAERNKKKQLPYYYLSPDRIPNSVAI
As to the kind of experiment: Fluorescence Intensity 5-LOX Enzyme Assay. Particulars: crude lysate of recombinant human 5-LOX; highest inhibitor concentration tested typically 25 μM. Format: biochemical. From the text: Bio Data Assays for Allergic and Non Allergic Airways Diseases Fluorescence Intensity 5-LOX Enzyme Assay
The enzyme assay is based on the oxidation of the non-fluorescent compound 2′7′-dichlorodihydrofluorescein diacetate (H2DCFDA) to the fluorescent 2′,7′-dichlorofluorescein by 5-LOX in an arachidonic acid-dependent reaction. Ester cleavage of the acetate groups of the substrate H2DCFDA must occur prior to oxidation. This is achieved through use of a crude cell lysate preparation of recombinant human 5-LOX. The enzyme assay ([…]) contained 50 mM Tris (pH 7.5), 2 mM CaCl2, 2 mM EDTA, 3 μM arachidonic acid (Nu-Chek Prep; #S-1133), 10 μM ATP, 10 μM H2DCFDA (Invitrogen; #D399), inhibitor (varying concentration) and recombinant human 5-LOX enzyme (1.25 μL crude lysate per well).
Inhibitors (dissolved in DMSO) were plated into a 384-well assay plate (Corning #3654) at 1 μL followed by a 20 μL addition of a solution containing 5-LO enzyme and H2DCFDA. Enzyme and H2DCFDA were pre-incubated for 5 min to allow time for acetate group cleavage of the dye prior to addition to the assay plate. After a 10 min pre-incubation of inhibitor and enzyme/dye mix, the assay was initiated by the addition of a substrate solution containing arachidonic acid and ATP. The enzymatic reaction was run for 20 min at room temperature and terminated by the addition of 40 μL of acetonitrile. Assay plates were read in a plate reader using standard wavelengths for fluorescein. IC50s of inhibitors were calculated using a 4-parameter fit using 7 inhibitor concentrations in duplicate with 3-fold serial dilutions. Controls on each plate included no inhibitor (zero percent effect) and 25 μM C J-13610 (one hundred percent effect). The highest inhibitor concentration tested was typically 25 μM. The final DMSO concentration in the assay was 2.5%.

One may read the IC50 as the concentration at which inhibition is half-maximal. On to `NC(=O)C1(c2cccc(Sc3ccc(-c4[nH]ncc4Br)cc3)c2)CCOCC1` [Example 60, 4-(3-{[4-(4-bromo-1H-pyrazol-5-yl)phenyl]thio}phenyl)tetrahydro-2H-pyran-4-carboxamide], for which the IC50 in experiment [1] was 1400 nM; on recombinant human 5-LOX, 608 nM.
The like results for `Cn1nccc1Oc1ncc(Sc2cccc(C3(C(N)=O)CCOCC3)c2F)cc1Cl` [Example 61, 4-[3-({5-chloro-6-[(1-methyl-1H-pyrazol-5-yl)oxy]pyridin-3-yl}thio)-2-fluorophenyl]tetrahydro-2H-pyran-4-carboxamide] were, in that order, 2160 nM and 327 nM.
For `Cn1nccc1C(=O)c1ccc(Sc2cccc(C3(C#N)CCOCC3)c2)cc1` [Example 62, 4-[3-({4-[(1-methyl-1H-pyrazol-5-yl)carbonyl]phenyl}thio)phenyl]tetrahydro-2H-pyran-4-carbonitrile], in that order: 1490 nM and 2160 nM.
As to `Cn1nccc1C(=O)c1cc(F)c(Sc2cccc(C3(C(N)=O)CCOCC3)c2)cc1F` [Example 63, 4-[3-({2,5-difluoro-4-[(1-methyl-1H-pyrazol-5-yl)carbonyl]phenyl}thio)phenyl]tetrahydro-2H-pyran-4-carboxamide], the IC50 was 1260 nM in experiment [1] and 256 nM at recombinant human 5-LOX.
`CNC(=O)C1(c2cccc(Sc3ccc(C(=O)c4ccnn4C)c(OC)c3)c2)CCOCC1` [Example 64, 4-[3-({3-methoxy-4-[(1-methyl-1H-pyrazol-5-yl)carbonyl]phenyl}thio)phenyl]-N-methyltetrahydro-2H-pyran-4-carboxamide]: the IC50 in experiment [1] stood at 8270 nM; at recombinant human 5-LOX, 470 nM.
For `CNC(=O)C1(c2cccc(Sc3ccc(C(=O)c4ccnn4C)c(Cl)c3)c2)CCOCC1` [Example 65, 4-[3-({3-chloro-4-[(1-methyl-1H-pyrazol-5-yl)carbonyl]phenyl}thio)phenyl]-N-methyltetrahydro-2H-pyran-4-carboxamide], in that order: 1060 nM and 81.3 nM.
The like results for `Cn1nccc1C(=O)c1ccc(Sc2cccc(C3(C(N)=O)CCOCC3)c2)c(F)c1` [Example 67, 4-[3-({2-fluoro-4-[(1-methyl-1H-pyrazol-5-yl)carbonyl]phenyl}thio)phenyl]tetrahydro-2H-pyran-4-carboxamide] were, in that order, 1210 nM and 209 nM.
For `Cn1nccc1C(=O)c1ccc(Sc2cccc(C3(C(N)=O)CCOCC3)c2)c(Cl)c1` [Example 68, 4-[3-({2-chloro-4-[(1-methyl-1H-pyrazol-5-yl)carbonyl]phenyl}thio)phenyl]tetrahydro-2H-pyran-4-carboxamide], in that order: 2480 nM and 803 nM.
As to `Cn1nccc1C(=O)c1ccc(Sc2cccc(C3(C(N)=O)CCOCC3)c2)cn1` [Example 69, 4-[3-({6-[(1-methyl-1H-pyrazol-5-yl)carbonyl]pyridin-3-yl}thio)phenyl]tetrahydro-2H-pyran-4-carboxamide], the IC50 in experiment [1] came to 3350 nM; on recombinant human 5-LOX, 1590 nM.
The like results for `COc1cc(C(=O)c2ccnn2C)ccc1Sc1cccc(C2(C(N)=O)CCOCC2)c1` [Example 70, 4-[3-({2-methoxy-4-[(1-methyl-1H-pyrazol-5-yl)carbonyl]phenyl}thio)phenyl]tetrahydro-2H-pyran-4-carboxamide] were, in that order, 3130 nM and 740 nM.
For `COc1cc(Sc2cccc(C3(C(N)=O)CCOCC3)c2)ccc1C(=O)c1ccnn1C` [Example 71, 4-[3-({3-methoxy-4-[(1-methyl-1H-pyrazol-5-yl)carbonyl]phenyl}thio)phenyl]tetrahydro-2H-pyran-4-carboxamide], in that order: 1980 nM and 430 nM.
Consider `CNC(=O)C1(c2cccc(Sc3ccc(C(=O)c4ccnn4C)cc3)c2)CCOCC1` [Example 72, N-methyl-4-[3-({4-[(1-methyl-1H-pyrazol-5-yl)carbonyl]phenyl}thio)phenyl]tetrahydro-2H-pyran-4-carboxamide], for which the figures for the IC50 (in experiment [1]; at recombinant human 5-LOX) were 6360 nM and 109 nM, respectively.
The like results for `C[C@H]1C[C@@](C(N)=O)(c2cccc(Sc3ccc(-c4c(Br)cnn4C)cc3)c2F)CCO1` [Example 73, (2S,4R)-4-(3-{[4-(4-bromo-1-methyl-1H-pyrazol-5-yl)phenyl]thio}-2-fluorophenyl)-2-methyltetrahydro-2H-pyran-4-carboxamide] were, in that order, 672 nM and 13.4 nM.
The like results for `Cn1ncc(Br)c1-c1ccc(Sc2cccc(C3(C(N)=O)CCOCC3)c2)cc1` [Example 76, 4-(3-{[4-(4-bromo-1-methyl-1H-pyrazol-5-yl)phenyl]thio}phenyl)tetrahydro-2H-pyran-4-carboxamide] were, in that order, 727 nM and 108 nM.
In the case of `Cn1ncc(Br)c1-c1ccc(Sc2cccc(C3(C(N)=O)CCOCC3)c2)cc1F` [Example 78, 4-(3-{[4-(4-bromo-1-methyl-1H-pyrazol-5-yl)-3-fluorophenyl]thio}phenyl)tetrahydro-2H-pyran-4-carboxamide], the figures for the IC50 (in experiment [1]; on recombinant human 5-LOX) were 1380 nM and 153 nM, respectively.
Turning to `C[C@@H]1C[C@](C#N)(c2cccc(Sc3ccc(-c4ccnn4C)cc3)c2)CCO1` [Example 82, (2R,4S)-2-methyl-4-(3-{[4-(1-methyl-1H-pyrazol-5-yl)phenyl]thio}phenyl)tetrahydro-2H-pyran-4-carbonitrile], the IC50 in experiment [1] was found to be 530 nM; at recombinant human 5-LOX, 1200 nM.
For `CCNC(=O)C1(c2cccc(Sc3ccc(-c4ccnn4C)cc3)c2)CCOCC1` [Example 86, N-ethyl-4-(3-{[4-(1-methyl-1H-pyrazol-5-yl)phenyl]thio}phenyl)tetrahydro-2H-pyran-4-carboxamide], in that order: 565 nM and 324 nM.
For `Cn1nccc1-c1ccc(Sc2cccc(C3(C(N)=O)CCOCC3)c2Cl)cc1` [Example 87, 4-(2-chloro-3-{[4-(1-methyl-1H-pyrazol-5-yl)phenyl]thio}phenyl)tetrahydro-2H-pyran-4-carboxamide], the IC50 in experiment [1] turned out to be 1010 nM; at recombinant human 5-LOX, 1100 nM.
For `Cn1nccc1-c1ccc(Sc2cccc(C3(C(N)=O)CCOCC3)c2)c(C#N)c1` [Example 88, 4-(3-{[2-cyano-4-(1-methyl-1H-pyrazol-5-yl)phenyl]thio}phenyl)tetrahydro-2H-pyran-4-carboxamide], in that order: 1170 nM and 3220 nM.
